We go through 64 compounds from patent US7772263B2, “Compounds for the treatment of inflammatory disorders” (Schering Corporation, priority 2006, dated 2010).

T1 sequence (P78536 215-477 S266A/N452Q limits assumed): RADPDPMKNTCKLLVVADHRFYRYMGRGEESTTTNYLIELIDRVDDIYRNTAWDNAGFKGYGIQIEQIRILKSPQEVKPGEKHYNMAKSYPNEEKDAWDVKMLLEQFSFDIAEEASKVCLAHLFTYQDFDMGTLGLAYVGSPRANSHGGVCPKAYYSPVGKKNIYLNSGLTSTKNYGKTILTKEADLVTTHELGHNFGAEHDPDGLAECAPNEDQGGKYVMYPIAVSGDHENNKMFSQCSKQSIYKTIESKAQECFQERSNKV

The first assay has as its target T1, purified catalytic domain of recombinant human TACE (rhTACEc) (Homo sapiens, UniProt P78536, N452Q/S266A).
T1 construct: rhTACEc, Residue 215 to 477 with two mutation (S266A and N4520) and a 6×His tail; 6xHis (C); made in house; host or cells: baculovirus/Hi5 insect cells
Briefly: TACE kinetic assay, cleavage of internally quenched fluorescent peptide substrate SPDL-3. The conditions noted are these: Ki (nM), TACE inhibitory activity, rhTACEc 70 pM, 30 μM SPDL-3, 90 min pre-incubation at 25° C. Type of assay: biochemical.
What is called Ki is a dissociation constant, usually derived from enzyme kinetics or from competition with a known ligand. As for `COc1ccc2c(c1)C(=O)N(C[C@@]1(C#Cc3ccccc3F)NC(=O)NC1=O)C2` [Compound 516], the inhibitory constant (Ki) worked out at 0.13 nM.

Still in this assay, the particulars now being: TACE inhibition, Table 1001; read-out: Ki Rating.
`COc1ccc2c(c1)C(=O)N(C[C@@]1(C#Cc3cncc(-n4cccn4)c3)NC(=O)NC1=O)C2` [Compound 482B]: the Ki was less than 5 nM.

In the case of `COc1ccc2c(c1)C(=O)N(C[C@@]1(C#Cc3cncc(-n4ccnc4C)c3)NC(=O)NC1=O)C2` [Compound 482C], the inhibitory constant (Ki) was less than 5 nM.

For the compound `COc1ccc2c(c1)C(=O)N(C[C@@]1(C#Cc3cncc(N4CCOCC4)c3)NC(=O)NC1=O)C2` [Compound 482], the Ki was less than 5 nM.

As to `COc1ccc2c(c1)C(=O)N(C[C@@]1(C#Cc3ccc(F)c(F)c3)NC(=O)NC1=O)C2` [Compound 483], the inhibition constant Ki was less than 5 nM.

`COc1ccc2c(c1)C(=O)N(C[C@@]1(C#Cc3ccc(OC(F)(F)F)cc3)NC(=O)NC1=O)C2` [Compound 484]: the inhibition constant Ki is less than 5 nM.

As to `COc1ccc2c(c1)C(=O)N(C[C@@]1(C#Cc3ccc(Cl)cc3)NC(=O)NC1=O)C2` [Compound 485], the inhibition constant (Ki) was less than 5 nM.

For the compound `COc1ccc2c(c1)C(=O)N(C[C@@]1(C#Cc3ccc(C(F)(F)F)cc3)NC(=O)NC1=O)C2` [Compound 486], the Ki is less than 5 nM.

Turning to `COc1ccc2c(c1)C(=O)N(C[C@@]1(C#Cc3cnn(C)c3)NC(=O)NC1=O)C2` [Compound 487], the Ki was less than 5 nM.

On to `COc1ccc2c(c1)C(=O)N(C[C@@]1(C#Cc3cccc(Cl)c3F)NC(=O)NC1=O)C2` [Compound 488], for which the Ki was less than 5 nM.

With `COc1ccc2c(c1)C(=O)N(C[C@@]1(C#Cc3cccc(F)c3F)NC(=O)NC1=O)C2` [Compound 489], the Ki is less than 5 nM.

For the compound `COc1ccc2c(c1)C(=O)N(C[C@@]1(C#Cc3ccc(F)cc3F)NC(=O)NC1=O)C2` [Compound 490], the Ki is less than 5 nM.

Regarding `COc1ccc2c(c1)C(=O)N(C[C@@]1(C#Cc3c(F)cccc3F)NC(=O)NC1=O)C2` [Compound 491], the Ki is less than 5 nM.

Regarding `COc1ccc2c(c1)C(=O)N(C[C@@]1(C#Cc3c(F)cc(F)cc3F)NC(=O)NC1=O)C2` [Compound 492], the Ki is less than 5 nM.

`COc1ccc2c(c1)C(=O)N(C[C@@]1(C#Cc3cccc(F)c3Cl)NC(=O)NC1=O)C2` [Compound 493]: the Ki is less than 5 nM.

In the case of `COc1ccc2c(c1)C(=O)N(C[C@@]1(C#Cc3ccc4nc(N)sc4c3)NC(=O)NC1=O)C2` [Compound 494], the Ki is less than 5 nM.

With `COc1ccc2c(c1)C(=O)N(C[C@@]1(C#Cc3ccc4sc(C)nc4c3)NC(=O)NC1=O)C2` [Compound 495], the Ki is less than 5 nM.

Regarding `COc1ccc2c(c1)C(=O)N(C[C@@]1(C#Cc3ccc(C)nc3C)NC(=O)NC1=O)C2` [Compound 496], the Ki was less than 5 nM.

For `COc1ccc2c(c1)C(=O)N(C[C@@]1(C#Cc3cc(C)ccc3F)NC(=O)NC1=O)C2` [Compound 497], the Ki is less than 5 nM.

Consider `COc1ccc2c(c1)C(=O)N(C[C@@]1(C#Cc3cc(F)ccc3C)NC(=O)NC1=O)C2` [Compound 498], for which the inhibition constant (Ki) is less than 5 nM.

With `COc1ccc2c(c1)C(=O)N(C[C@@]1(C#Cc3ccc(Cl)cc3F)NC(=O)NC1=O)C2` [Compound 499], the Ki is less than 5 nM.

With `COc1ccc2c(c1)C(=O)N(C[C@@]1(C#Cc3ccc(C)cc3F)NC(=O)NC1=O)C2` [Compound 500], the Ki is less than 5 nM.

For `COc1ccc2c(c1)C(=O)N(C[C@@]1(C#Cc3cccc4nc(N)sc34)NC(=O)NC1=O)C2` [Compound 503], the Ki was less than 5 nM.

Regarding `COc1ccc2c(c1)C(=O)N(C[C@@]1(C#Cc3ccc4nc(NC5CC5)sc4c3)NC(=O)NC1=O)C2` [Compound 504], the inhibition constant (Ki) is less than 5 nM.

For the compound `COc1ccc2c(c1)C(=O)N(C[C@@]1(C#Cc3ccc4sc(N)nc4c3)NC(=O)NC1=O)C2` [Compound 505], the Ki is less than 5 nM.

Consider `COc1cncc(C#C[C@]2(CN3Cc4ccc(OC)cc4C3=O)NC(=O)NC2=O)c1` [Compound 506], for which the Ki was less than 5 nM.

On to `CNc1nc2cccc(C#C[C@]3(CN4Cc5ccc(OC)cc5C4=O)NC(=O)NC3=O)c2s1` [Compound 507], for which the inhibition constant (Ki) is less than 5 nM.

For `CNc1nc2cc(C#C[C@]3(CN4Cc5ccc(OC)cc5C4=O)NC(=O)NC3=O)ccc2s1` [Compound 508], the Ki was less than 5 nM.

`COc1ccc2c(c1)C(=O)N(C[C@@]1(C#Cc3ccc4nc(C)sc4c3)NC(=O)NC1=O)C2` [Compound 509]: the Ki is less than 5 nM.

As to `COc1ccc2c(c1)C(=O)N(C[C@@]1(C#Cc3ccc(F)c(Cl)c3)NC(=O)NC1=O)C2` [Compound 510], the Ki was less than 5 nM.

As for `COc1ccc2c(c1)C(=O)N(C[C@@]1(C#Cc3ccc(C)s3)NC(=O)NC1=O)C2` [Compound 513], the inhibitory constant (Ki) was less than 5 nM.

On to `COc1ccc2c(c1)C(=O)N(C[C@@]1(C#Cc3ccccc3C(F)(F)F)NC(=O)NC1=O)C2` [Compound 514], for which the inhibitory constant (Ki) is less than 5 nM.

As for `COc1ccc2c(c1)C(=O)N(C[C@@]1(C#Cc3ccccc3OC(F)(F)F)NC(=O)NC1=O)C2` [Compound 515], the inhibition constant (Ki) is less than 5 nM.

For `COc1ccc2c(c1)C(=O)N(C[C@@]1(C#Cc3ccccc3F)NC(=O)NC1=O)C2` [Compound 516], the Ki was less than 5 nM.

Consider `COc1ccc2c(c1)C(=O)N(C[C@@]1(C#Cc3cc(F)ccc3Cl)NC(=O)NC1=O)C2` [Compound 517], for which the Ki was less than 5 nM.

As to `COc1ccc2c(c1)C(=O)N(C[C@@]1(C#Cc3cc(Cl)ccc3F)NC(=O)NC1=O)C2` [Compound 518], the inhibitory constant (Ki) is less than 5 nM.

For `COc1ccc2c(c1)C(=O)N(C[C@@]1(C#Cc3ccc(C(F)(F)F)nc3)NC(=O)NC1=O)C2` [Compound 519], the Ki was less than 5 nM.

`COc1ccc2c(c1)C(=O)N(C[C@@]1(C#Cc3sc4ccc(Cl)cc4c3C)NC(=O)NC1=O)C2` [Compound 520]: the Ki was less than 5 nM.

Consider `COc1ccc2c(c1)C(=O)N(C[C@@]1(C#Cc3cc(F)ccc3F)NC(=O)NC1=O)C2` [Compound 521], for which the Ki was less than 5 nM.

Take `COc1ccc2c(c1)C(=O)N(C[C@@]1(C#Cc3ccc(S(N)(=O)=O)s3)NC(=O)NC1=O)C2` [Compound 522]: the Ki was less than 5 nM.

`COc1ccc2c(c1)C(=O)N(C[C@@]1(C#Cc3ccc(C)nn3)NC(=O)NC1=O)C2` [Compound 523]: the Ki is less than 5 nM.

For the compound `COc1ccc2c(c1)C(=O)N(C[C@@]1(C#Cc3cc(C)c4c(cnn4C)c3)NC(=O)NC1=O)C2` [Compound 524], the Ki is less than 5 nM.

For the compound `COc1ccc2c(c1)C(=O)N(C[C@@]1(C#Cc3ccc4nc(C(F)(F)F)n(C)c4c3)NC(=O)NC1=O)C2` [Compound 525], the Ki was less than 5 nM.

For the compound `COc1ccc2c(c1)C(=O)N(C[C@@]1(C#Cc3ccc4sccc4c3)NC(=O)NC1=O)C2` [Compound 526], the inhibition constant Ki was less than 5 nM.

As for `COc1ccc2c(c1)C(=O)N(C[C@@]1(C#Cc3cc(C)c4nn(C)cc4c3)NC(=O)NC1=O)C2` [Compound 527], the Ki was less than 5 nM.

Turning to `COc1ccc2c(c1)C(=O)N(C[C@@]1(C#Cc3csc(C(F)F)c3)NC(=O)NC1=O)C2` [Compound 528], the Ki is less than 5 nM.

In the case of `COc1ccc2c(c1)C(=O)N(C[C@@]1(C#Cc3ccc(C(F)(F)F)s3)NC(=O)NC1=O)C2` [Compound 529], the Ki is less than 5 nM.

In the case of `COc1ccc2c(c1)C(=O)N(C[C@@]1(C#Cc3ccc(C(F)(F)F)cc3F)NC(=O)NC1=O)C2` [Compound 530], the inhibition constant (Ki) is less than 5 nM.

For `COc1ccc2c(c1)C(=O)N(C[C@@]1(C#Cc3ccc(S(C)(=O)=O)s3)NC(=O)NC1=O)C2` [Compound 531], the Ki was less than 5 nM.

In the case of `COc1ccc2c(c1)C(=O)N(C[C@@]1(C#Cc3csc4ccccc34)NC(=O)NC1=O)C2` [Compound 532], the Ki was less than 5 nM.

For the compound `COc1ccc2c(c1)C(=O)N(C[C@@]1(C#Cc3csc(C)c3)NC(=O)NC1=O)C2` [Compound 533], the Ki is less than 5 nM.

`COc1ccc2c(c1)C(=O)N(C[C@@]1(C#Cc3cccc(=O)[nH]3)NC(=O)NC1=O)C2` [Compound 535]: the inhibition constant Ki is less than 5 nM.

For `COc1ccc2c(c1)C(=O)N(C[C@@]1(C#Cc3ccc(=O)[nH]c3)NC(=O)NC1=O)C2` [Compound 536], the Ki is less than 5 nM.

`COc1ccc2c(c1)C(=O)N(C[C@@]1(C#Cc3ccsc3C(N)=O)NC(=O)NC1=O)C2` [Compound 537]: the Ki was less than 5 nM.

As for `COc1ccc2c(c1)C(=O)N(C[C@@]1(C#Cc3ccc(C(N)=O)s3)NC(=O)NC1=O)C2` [Compound 538], the inhibitory constant (Ki) is less than 5 nM.

Turning to `COc1ccc2c(c1)C(=O)N(C[C@@]1(C#Cc3ccc[n+]([O-])c3)NC(=O)NC1=O)C2` [Compound 539], the inhibitory constant (Ki) is less than 5 nM.

As to `COc1ccc2c(c1)C(=O)N(C[C@@]1(C#Cc3cccn(C)c3=O)NC(=O)NC1=O)C2` [Compound 540], the Ki is less than 5 nM.

Take `COc1ccc2c(c1)C(=O)N(C[C@@]1(C#Cc3cncc(N)c3)NC(=O)NC1=O)C2` [Compound 554]: the Ki is less than 5 nM.

For the compound `COc1ccc2c(c1)C(=O)N(C[C@@]1(C#Cc3cnc(O)cc3C)NC(=O)NC1=O)C2` [Compound 555], the Ki was less than 5 nM.

Regarding `COc1ccc2c(c1)C(=O)N(C[C@@]1(C#Cc3cn[nH]c3)NC(=O)NC1=O)C2` [Compound 900], the Ki was less than 5 nM.

On to `COc1ccc2c(c1)C(=O)N(C[C@@]1(C#Cc3ccc(C(=O)NC4CC4)o3)NC(=O)NC1=O)C2` [Compound 901], for which the Ki was less than 5 nM.

On to `COc1ccc2c(c1)C(=O)N(C[C@@]1(C#Cc3c[nH]c(C)n3)NC(=O)NC1=O)C2` [Compound 902], for which the Ki was less than 5 nM.

Turning to `COc1ccc2c(c1)C(=O)N(C[C@@]1(C#Cc3ccc4ncsc4c3)NC(=O)NC1=O)C2` [Compound 903], the Ki was less than 5 nM.

For `COc1ccc2c(c1)C(=O)N(C[C@@]1(C#Cc3ccccc3C(C)C)NC(=O)NC1=O)C2` [Compound 904], the inhibition constant (Ki) is less than 5 nM.

Regarding `O=C1NC(=O)[C@@](C#Cc2ccc(F)cc2F)(CN2Cc3ccc(OC(F)F)cc3C2=O)N1` [Compound 905], the inhibition constant Ki was less than 5 nM.

The same assay, now with this note: rhTACEc 70 pM, 30 μM SPDL-3, 90 min pre-incubation at 25° C.; read-out: Ki (nM), TACE inhibitory activity.
Take `COc1ccc2c(c1)C(=O)N(C[C@@]1(C#Cc3ccc(F)cc3F)NC(=O)NC1=O)C2` [Compound 490]: the inhibition constant Ki turned out to be 0.23 nM.

On to `COc1ccc2c(c1)C(=O)N(C[C@@]1(C#Cc3cncc(N)c3)NC(=O)NC1=O)C2` [Compound 554], for which the Ki was 0.31 nM.
